*: point of attachment. NHNH2 = NN*
How the values were obtained:
Assay type in all cases: cell-based
[1] = tested on: A549 cells; experiment: RLuc pDNA delivery, robotic library screening, A549
Protocol: Cells were seeded in a 96 well plate the day before the experiment at a concentration of 60,000 cell/mL (100 μL/w) in DMEM+10% FBS+1% Gln-Abt. For robotic library screening, the delivery of pDNA encoding for the expression of Renilla luciferase gene (RLuc, pRL-CMV (Promega, #E2261)) in six different cell lines was performed. Amphihilic molecule stock solutions in DMSO were diluted with DMEM and freshly mixed with pDNA stock solutions in DMEM prior to transfection experiments, to afford several complexes at different amphiphile concentration (2-10 μM) while maintaining a constant final pDNA concentration of 2 ng/μL. The mixture was shaken for 30 min at room temperature before the addition to the cells. The cell medium was aspirated, and cells were washed twice with PBS. Finally, 50 μL of the complex's solution were added to the cells and incubated for 4 h. After the incubation, the medium was replaced by 100 μL of fresh DMEM supplemented with 10% FBS. 72 hours after transfection the DMEM was removed, cells were washed once with HBSS and 90 μL of HBSS were added to each well. Cells were incubated at 37° C. for 30 minutes. Then basal luminescence levels were read in a plate reader. Immediately, 10 μL of coelenterazine h in HBSS were added to each well (5 μM final concentration) and cells were incubated at 37° C. for 10 minutes. Finally, the total luminescence measurement of the plates was performed. Amphiphile transfection efficiency was compared and normalized to Lipofectamine® 2000 efficiency (value of 1 in Tables 1-5 and 7; bold numbers). All experiments were done in triplicate.
(§1) Tables 1-7: RLuc (pDNA) or EGFP (mRNA) expression levels were normalized to Lipofectamine reagents (value=1) and expressed as fold-times signal increase. In the case of siRNA, the siRNA treated cells fluorescence was compared with siMOCK control fluorescence, while Cas9-RNP mediated knockout was measured against the fluorescence of untreated cells. In both siRNA and Cas9-RNP, values are expressed as % fluorescence reduction. Amphiphile concentration was 5 μM in all cases. All experiments were performed in triplicate.
Tables 8-13 show the mean (triplicates) luminescent intensity (RLU) measured after the transfection of RLuc pDNA by different amphiphiles at different concentrations in a variety of cell lines. Background luminescence values, accounted by untransfected control cells, were subtracted for processing.

[2] = tested on: A549 cells expressing EGFP; experiment: EGFP-targeting siRNA delivery (GFP silencing vs siMOCK), A549; conditions: for percentage of GFP-silencing relative to siMOCK: A549 cells
Protocol: (§2) To generate an EGFP expressing HeLa cell line, HeLa cells were transfected with EGFP pDNA (pEGFP-C1, Clontech) and stable transfectants were selected with 400 μg/mL of G-418 (Millipore). Green clones were selected by epifluorescence microscopy and tested for EGFP expression stability through several passages. […] All other EGFP-expressing cell lines were obtained in a similar way from parent non-EGFP-expressing cell lines.
(§3) Cells expressing EGFP were seeded in a 96 well plate the day before the experiment at a concentration of 50,000 cell/mL (100 μL/w) in DMEM+10% FBS+1% Gln-Abt. For robotic library screening, the delivery of an EGFP-targeting siRNA (EGFP: enhanced green fluorescent protein, Ambion® Silencer® GFP Positive Control siRNA (siGFP) (AM4626)) in six different cell lines expressing EGFP was performed. […] The mixture was shaken for 30 min at room temperature (rt) before the addition to the cells. The cell medium was aspirated, and cells were washed twice with PBS. Finally, 50 μL of the solution of siRNA/amphiphile complexes were added to the cells and incubated for 4 h. After transfection, the medium was replaced by 100 μL of fresh DMEM supplemented with 10% FBS. The fluorescence knockdown was quantified after 72 h in a plate reader, by comparison with cells transfected with a non-targeting siRNA control (siMOCK, Silencer™ Negative Control No. 1 siRNA (siMOCK) (AM4611)). EGFP knockdown was compared with Lipofectamine® RNAiMAX silencing efficiency (30-60% depending on cell line, defined with a numeric value in the below tables). All experiments were done in triplicate.
as §1
(§4) Tables 20-25 show the mean (triplicates) percentage of GFP-silencing, accounted by fluorescence intensity decrease relative to a non-targeting siRNA (siMOCK) control, measured after the transfection of siRNA by different amphiphiles at different concentrations in a variety of cell lines. Background values, accounted by untreated control cells, were subtracted for processing.

[3] = tested on: Hek293 cells expressing EGFP; experiment: EGFP-targeting siRNA delivery (GFP silencing vs siMOCK), Hek293
Protocol: as §2, §3, §1, §4

Substance	mean luminescent intensity (RLuc pDNA) ([1]; Dodecanal, 10 μM) [RLU]	mean luminescent intensity (RLuc pDNA) ([1]; Myristoleyl, 5 μM) [RLU]	mean luminescent intensity (RLuc pDNA) ([1]; Myristoleyl, 10 μM) [RLU]	mean luminescent intensity (RLuc pDNA) ([1]; Myristoleyl, 15 μM) [RLU]	percentage of GFP-silencing relative to siMOCK ([2]; Dodecanal, 5 μM) [%]	percentage of GFP-silencing relative to siMOCK ([2]; Dodecanal, 10 μM) [%]	percentage of GFP-silencing relative to siMOCK ([2]; Dodecanal, 15 μM) [%]	percentage of GFP-silencing relative to siMOCK ([2]; Myristoleyl, 5 μM) [%]	percentage of GFP-silencing relative to siMOCK ([2]; Myristoleyl, 10 μM) [%]	percentage of GFP-silencing relative to siMOCK ([2]; Myristoleyl, 15 μM) [%]	percentage of GFP-silencing relative to siMOCK ([3]; Dodecanal, 5 μM) [%]	percentage of GFP-silencing relative to siMOCK ([3]; Dodecanal, 15 μM) [%]	percentage of GFP-silencing relative to siMOCK ([3]; Myristoleyl, 10 μM) [%]	percentage of GFP-silencing relative to siMOCK ([3]; Myristoleyl, 15 μM) [%]	further results
Ac-RK*LRRK*LRK*-NH2 (Ac-RK(NHNH2)LRRK(NHNH2)LRK(NHNH2)-NH2; not fully specified; printed as Ac-RK*LRRK*LRK*-NH2; also: K*2,K*6,K*9: native or modified lysine (ε-amide to a linker)) [Peptide 9.3]	2898	23125	32698	6504	35	35	55	34	58	23	19	40	10	43	mean luminescent intensity (RLuc pDNA) ([1]; Oleyl, 10 μM): 1117 RLU; mean luminescent intensity (RLuc pDNA) ([1]; Oleyl, 15 μM): 1433 RLU; mean luminescent intensity (RLuc pDNA) ([1]; Palmitoleyl, 10 μM): 5800 RLU; mean luminescent intensity (RLuc pDNA) ([1]; Palmitoleyl, 15 μM): 9967 RLU; mean luminescent intensity (RLuc pDNA) ([1]; Petroselinyl, 10 μM): 4167 RLU; mean luminescent intensity (RLuc pDNA) ([1]; Petroselinyl, 15 μM): 5514 RLU; siRNA % fluorescence reduction vs siMOCK ([2]; A549, amphiphile 5 μM, hydrophobic tail, palmitoleyl hydrophobic tail): 75%; percentage of GFP-silencing relative to siMOCK ([2]; Oleyl, 10 μM): 32%; percentage of GFP-silencing relative to siMOCK ([2]; Oleyl, 15 μM): 28%; percentage of GFP-silencing relative to siMOCK ([2]; Palmitoleyl, 5 μM): 42%; percentage of GFP-silencing relative to siMOCK ([2]; Palmitoleyl, 10 μM): 75%; percentage of GFP-silencing relative to siMOCK ([2]; Palmitoleyl, 15 μM): 64%; percentage of GFP-silencing relative to siMOCK ([2]; Petroselinyl, 5 μM): 6%; percentage of GFP-silencing relative to siMOCK ([2]; Petroselinyl, 10 μM): 58%; percentage of GFP-silencing relative to siMOCK ([2]; Petroselinyl, 15 μM): 75%; percentage of GFP-silencing relative to siMOCK ([3]; Oleyl, 15 μM): 28%; percentage of GFP-silencing relative to siMOCK ([3]; Palmitoleyl, 10 μM): 17%; percentage of GFP-silencing relative to siMOCK ([3]; Palmitoleyl, 15 μM): 36%; percentage of GFP-silencing relative to siMOCK ([3]; Petroselinyl, 10 μM): 3%; percentage of GFP-silencing relative to siMOCK ([3]; Petroselinyl, 15 μM): −12%
Ac-RK*LRRLLRK*-NH2 (Ac-RK(NHNH2)LRRLLRK(NHNH2)-NH2; not fully specified; printed as Ac-RK*LRRLLRK*-NH2; also: K*2,K*9: native or modified lysine (ε-amide to a linker)) [Peptide 9.2]	1215	10365	3358	1684	32	29	16	−1	−6	−14	14	3	10	−1	

Source: patent US20250304623A1, “PEPTIDES FOR INTRACELLULAR DELIVERY” (UNIVERSIDADE DE SANTIAGO DE COMPOSTELA, priority 2022, published 2025)
